According to patent US20090258914A1, “Inhibitor of Anti-Apoptotic Proteins” (Burnham Institute for Medical Research, priority 2008, published 2009):

Columns and labels:
BCL-xL = target: T1, BCL-xL (Homo sapiens, UniProt Q07817); assay: Dissociation constant (Kd) / binding to BCL-xL
T1 construct: Recombinant full length BCL-XL was produced from a pET-19b (Novagen) plasmid construct; poly-His (N); made in house; host or cells: E. coli BL21
Protocol: The inhibition was also evaluated by measuring dissociation constant (Kd) values for compound A in comparison with some related compounds 1, 2, and 3.
For all NMR experiments, BCL-xL was exchanged into 50 mM phosphate buffer at pH 7.5 and measurements were performed at 30° C. 2D [^15N,^1H]-HSQC spectra for BCL-xL were measured with 0.5 mM samples of ^15N-labeled protein. All experiments were performed with a 600 MHz Bruker Avance spectrometer, both equipped with either a TXI probe or a TCI cryoprobe. In all experiments, dephasing of residual water signals was obtained with a WATERGATE sequence. In order to test the ability of test compounds to bind to Bcl-xL, a 25 μM sample of the protein was prepared and 1D ^1H NMR spectra were collected in absence and presence of test compounds. By observing the aliphatic region of the spectra, binding can be readily detected in these simple experiments due to chemical shift changes in active site methyl groups of Ile, Leu, Thr, Val or Ala (region between 0.8 and 0.3 ppm).

Plasma stability = assay type: in vitro ADME
Microsomal stability = assay type: in vitro ADME
A549L = assay: Cell viability IC50, A549L; assay type: cell-based; settings: mean ± standard deviation of three independent experiments
Protocol: (§1) The effectiveness of compound A was also evaluated, in comparison with compound 1 shown in Table 1, by determining mean IC50 values, which were measured for three independent experiments (each in triplicate) for compounds 1 and A. All points were normalized to control as a percentage of cell viability and statistics were completed with Graphpad Prism software.

H460 = assay: Cell viability, H460; assay type: cell-based; settings: for IC50: Homo sapiens, NCI-H460, cell viability, mean ± standard deviation of three independent experiments
Protocol: (§2) The inhibition information for cells H460 and PC3ML is also shown by FIG. 2. […] The structures of compounds 1-3 are shown in Table 1, above, and the structure of compound 4 is as follows:
as §1

RS11846S = assay: Cell viability IC50, RS11846S; assay type: cell-based; settings: mean ± standard deviation of three independent experiments
Protocol: as §1

PC3ML = assay: Cell viability, PC3ML; assay type: cell-based; settings: for IC50: PC3-ML, cell viability, mean ± standard deviation of three independent experiments
Protocol: as §2, §1

B6Bcl2 mice [1] = assay: Spleen shrinkage / in vivo efficacy in B6Bcl2 transgenic mice; parameters: species or system mouse; settings: for in vivo activity / order of potency in terms of in vivo efficacy: B6BCL-2 transgenic mouse
Excerpt: In the same model, another known compound apogossypolone was not effective. Gossypol is described, e.g., in U.S. Pat. No. 7,186,708. Apogossypol is described, e.g., in Meyers A. I.; Willemsen J. J., Tetrahedron Letters, vol. 37, No. 6, February, […], pp. 791-792.
(§3) Compound A was given to B6Bcl2 mice at a daily dose of […] for 3 days through oral gavage. […] Both compound A and the negative control were preliminarily dissolved in PBS. After 3 days, the spleens of the animals were removed and weighed.
(§4) In parallel experiments, compound A was also administered intraperitoneally at […], as were some related compounds, such as compounds 1 and 2 shown in Table 1, above. In these experiments, after 24 hours, the spleens of the animals were removed and weighed.
(§5) The results of efficacy of compound A administered intraperitoneally were also compared with the results obtained when compound A was administered orally. […] Accordingly, compound A can be administered in both ways, orally or intraperitoneally. […] It was also shown that compound A can be administered safely.

B6Bcl2 mice [2] = assay: Safety in B6Bcl2 mice (weight loss, physical exam); assay type: in vivo, mouse; settings: regardless of route of administration (oral or intraperitoneal)
Protocol: as §3, §4, §5

[3] = FIG. 2, in comparison with compounds 1-4

T1 sequence (Q07817 whole entry, species assumed): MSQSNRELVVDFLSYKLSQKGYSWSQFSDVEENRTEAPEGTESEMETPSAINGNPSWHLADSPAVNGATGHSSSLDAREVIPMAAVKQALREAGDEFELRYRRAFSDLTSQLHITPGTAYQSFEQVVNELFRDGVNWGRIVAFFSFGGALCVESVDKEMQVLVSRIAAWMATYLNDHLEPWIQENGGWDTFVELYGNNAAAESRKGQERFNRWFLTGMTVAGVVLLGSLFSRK

| Compound | Kd (BCL-xL) [nM] | Plasma Stability, % (45 minutes) (Plasma stability) [%] | Microsomal Stability, % (45 minutes) (Microsomal stability) [%] | IC50 (A549L) [nM] | IC50 (H460) [nM] | IC50 (RS11846S) [nM] | IC50 (PC3ML) [nM] | in vivo activity (B6Bcl2 mice [1]) | order of potency in terms of in vivo efficacy (B6Bcl2 mice [1]) | further results |
| --- | --- | --- | --- | --- | --- | --- | --- | --- | --- | --- |
| CC(C)C(C(=O)O)N1C(=O)/C(=C\c2ccc(Br)cc2)SC1=S (stereo not drawn) [Compound 1] | 1100 | 56 | 54 | 12200 ± 5900 | 3000 ± 2400 | 6500 ± 10000 | 60900 ± 1600 |  |  |  |
| CC(C)C(C(=O)O)N1C(=O)/C(=C\c2ccc(-c3ccccc3)cc2)SC1=S (stereo not drawn) [Compound 2] | 160 | 59 | 22 |  |  |  |  |  |  |  |
| CC(=C\c1ccccc1)/C=C1/SC(=S)N(C(C(=O)O)C(C)C)C1=O (stereo not drawn) [Compound 3] | 11800 | 51 | 75 |  |  |  |  |  |  |  |
| O=C(O)CN1C(=O)S/C(=C\c2ccc(-c3ccccc3)cc2)C1=O [Compound A, (Z)-2-(5-(biphenyl-4-ylmethylene)-2,4-dioxothiazolidin-3-yl)acetic acid] | 14000 | 58 | 72 | 800 ± 300 | 500 ± 300 | 400 | 700 ± 600 | equal to, or better than, known compounds gossypol and apogossypol | compound A>apogossypol=gossypol | influence on the cell viability (H460; [3]): largest influence on the cell viability; influence on the cell viability (PC3ML; [3]): largest influence on the cell viability; shrinkage of spleen (B6Bcl2 mice [1]; either route, orally or intraperitoneally): induced shrinkage of spleen; degree of shrinkage of spleen, intraperitoneal injection higher than oral dosing (B6Bcl2 mice [1]; intraperitoneal vs oral, FIG. 4): about 100%; degree of shrinkage of spleen higher than that induced by compounds 1 or 2 (B6Bcl2 mice [1]; intraperitoneally at 60 mmol/kg, spleens weighed after 24 hours, FIG. 3): about 40%; weight loss or signs of toxicity via physical exam (B6Bcl2 mice [2]): no weight loss or signs of toxicity |
| Cc1cc2c(C(C)C)c(O)c(O)cc2c(O)c1-c1c(C)cc2c(C(C)C)c(O)c(O)cc2c1O [apogossypol] |  |  |  |  |  |  |  |  | compound A>apogossypol=gossypol |  |
| apogossypolone |  |  |  |  |  |  |  | not effective |  |  |
